# In patent US20250041279A1, “THERAPEUTIC MEDICINE FOR HEART DISEASE OR SKELETAL MUSCLE DISEASE” (SHIONOGI & CO., LTD., priority 2021, published 2025):
# pIC50: −log10 of the molar value. Read-outs that look alike come from different tables or passages of the source.
# Assays:
# [1] = biological target: recombinant human ACC1 (Homo sapiens (Human), UniProt Q13085); test: Measurement of inhibitory activity of human ACC1 (MALDI-TOF MS); type: biochemical; conditions: read-out: IC50 hACC1
# From the text: A cDNA encoding human ACC1 protein (1 amino acid residue to 2346 amino acid residues from the N-terminus) was cloned from a human liver cDNA library (BioChain Institute Inc.), myc tag and His-tag sequences were introduced at the 3′ end, and then inserted into pIEXBAC3 (Novagen). A recombinant baculovirus was produced in accordance with the protocol for Flash BACGOLD (Oxford Expression Technologies Ltd.), and Sf-9 cells were infected therewith to express human ACC1 protein. The recovered cells were crushed, filtered through a filter, and then subjected to Ni affinity chromatography and anion exchange chromatography. Fractions containing human ACC1 protein were collected to obtain recombinant human ACC1.
# The recombinant human ACC1 and the recombinant human ACC2 obtained from the above Preparation Examples were preincubated in an assay buffer (50 mM HEPES-KOH (pH 7.4), 10 mM magnesium chloride, 6 to 10 mM potassium citrate, 4 mM glutathione reduced form, and 1.5 mg/ml bovine serum albumin) for 1 hour. Then, 5 μL of the pre-incubated enzyme solution and 5 μL of a substrate solution (50 mM HEPES-KOH (pH 7.4), 1 mM ATP, 0.8 mM acetyl-CoA, and 25 to 50 mM potassium bicarbonate) were added to a 384-well microplate into which 0.2 μl of each of solutions of the compound of the present invention (DMSO had been dispensed, and the mixture was centrifuged and shaken, and then incubated in a wet box at room temperature for 1 to 3 hours. After incubation, the enzymatic reaction was stopped by addition of EDTA, and then the sample was co-crystallized with an α-cyano-4-hydroxy cinnamic acid (CHCA) matrix on a MALDI target plate, and measurement was performed in a reflector negative mode using a matrix-assisted laser desorption ionization-time-of-flight mass spectrometer (MALDI-TOF MS). Deprotonated ions of the substrate acetyl-CoA (AcCoA) and the reaction product malonyl-CoA (MalCoA) were detected, and the intensity of each signal was used to calculate a conversion rate to malonyl-CoA or succinyl-CoA, i.e., intensity of [MalCoA-H]—/(intensity of [MalCoA-H]-+intensity of [AcCoA.H].). […] The potassium citrate concentration in the assay buffer, the potassium bicarbonate concentration in the substrate solution, and the incubation time were adjusted within the above concentrations or reaction times for each lot of the enzyme to be used.
# [2] = Metabolic stability test, human liver microsomes; type: in vitro ADME; conditions: 37° C., 30 minutes, NADPH
# Protocol: Commercially available pooled human liver microsomes were reacted with the compound of the present invention for a given time. A residual rate was calculated by comparison between the reacted sample and the unreacted sample to evaluate a degree at which the compound of the present invention is metabolized in the liver.
# The compound was reacted at 37° C. for 0 minutes or 30 minutes in the presence of 1 mmol/L NADPH in 0.2 mL of a buffer (50 mmol/L Tris-HCl pH 7.4, 150 mmol/L potassium chloride, and 10 mmol/L magnesium chloride) containing 0.5 mg protein/mL of the human liver microsomes (oxidative reaction). After the reaction, 50 μL of the reaction solution was added to 100 μL of a solution of methanol/acetonitrile=1/1 (v/v) and mixed, and the mixture was centrifuged at 3000 rpm for 15 minutes. The compound of the present invention in the centrifuged supernatant was quantified by LC/MS/MS or solid-phase extraction (SPE)/MS. The amount of the compound of the present invention remained after the reaction was calculated with the amount of the compound at 0 minutes of the reaction defined as 100%.
# [3] = Metabolic stability test, rat; type: in vitro ADME; conditions: 30 minutes
# [4] = biological target: recombinant human ACC2 (Homo sapiens (Human), UniProt O00763); test: Measurement of inhibitory activity of human ACC2 (MALDI-TOF MS); type: biochemical; conditions: read-out: IC50 hACC2
# recombinant human ACC2, sequence (O00763 27-2458): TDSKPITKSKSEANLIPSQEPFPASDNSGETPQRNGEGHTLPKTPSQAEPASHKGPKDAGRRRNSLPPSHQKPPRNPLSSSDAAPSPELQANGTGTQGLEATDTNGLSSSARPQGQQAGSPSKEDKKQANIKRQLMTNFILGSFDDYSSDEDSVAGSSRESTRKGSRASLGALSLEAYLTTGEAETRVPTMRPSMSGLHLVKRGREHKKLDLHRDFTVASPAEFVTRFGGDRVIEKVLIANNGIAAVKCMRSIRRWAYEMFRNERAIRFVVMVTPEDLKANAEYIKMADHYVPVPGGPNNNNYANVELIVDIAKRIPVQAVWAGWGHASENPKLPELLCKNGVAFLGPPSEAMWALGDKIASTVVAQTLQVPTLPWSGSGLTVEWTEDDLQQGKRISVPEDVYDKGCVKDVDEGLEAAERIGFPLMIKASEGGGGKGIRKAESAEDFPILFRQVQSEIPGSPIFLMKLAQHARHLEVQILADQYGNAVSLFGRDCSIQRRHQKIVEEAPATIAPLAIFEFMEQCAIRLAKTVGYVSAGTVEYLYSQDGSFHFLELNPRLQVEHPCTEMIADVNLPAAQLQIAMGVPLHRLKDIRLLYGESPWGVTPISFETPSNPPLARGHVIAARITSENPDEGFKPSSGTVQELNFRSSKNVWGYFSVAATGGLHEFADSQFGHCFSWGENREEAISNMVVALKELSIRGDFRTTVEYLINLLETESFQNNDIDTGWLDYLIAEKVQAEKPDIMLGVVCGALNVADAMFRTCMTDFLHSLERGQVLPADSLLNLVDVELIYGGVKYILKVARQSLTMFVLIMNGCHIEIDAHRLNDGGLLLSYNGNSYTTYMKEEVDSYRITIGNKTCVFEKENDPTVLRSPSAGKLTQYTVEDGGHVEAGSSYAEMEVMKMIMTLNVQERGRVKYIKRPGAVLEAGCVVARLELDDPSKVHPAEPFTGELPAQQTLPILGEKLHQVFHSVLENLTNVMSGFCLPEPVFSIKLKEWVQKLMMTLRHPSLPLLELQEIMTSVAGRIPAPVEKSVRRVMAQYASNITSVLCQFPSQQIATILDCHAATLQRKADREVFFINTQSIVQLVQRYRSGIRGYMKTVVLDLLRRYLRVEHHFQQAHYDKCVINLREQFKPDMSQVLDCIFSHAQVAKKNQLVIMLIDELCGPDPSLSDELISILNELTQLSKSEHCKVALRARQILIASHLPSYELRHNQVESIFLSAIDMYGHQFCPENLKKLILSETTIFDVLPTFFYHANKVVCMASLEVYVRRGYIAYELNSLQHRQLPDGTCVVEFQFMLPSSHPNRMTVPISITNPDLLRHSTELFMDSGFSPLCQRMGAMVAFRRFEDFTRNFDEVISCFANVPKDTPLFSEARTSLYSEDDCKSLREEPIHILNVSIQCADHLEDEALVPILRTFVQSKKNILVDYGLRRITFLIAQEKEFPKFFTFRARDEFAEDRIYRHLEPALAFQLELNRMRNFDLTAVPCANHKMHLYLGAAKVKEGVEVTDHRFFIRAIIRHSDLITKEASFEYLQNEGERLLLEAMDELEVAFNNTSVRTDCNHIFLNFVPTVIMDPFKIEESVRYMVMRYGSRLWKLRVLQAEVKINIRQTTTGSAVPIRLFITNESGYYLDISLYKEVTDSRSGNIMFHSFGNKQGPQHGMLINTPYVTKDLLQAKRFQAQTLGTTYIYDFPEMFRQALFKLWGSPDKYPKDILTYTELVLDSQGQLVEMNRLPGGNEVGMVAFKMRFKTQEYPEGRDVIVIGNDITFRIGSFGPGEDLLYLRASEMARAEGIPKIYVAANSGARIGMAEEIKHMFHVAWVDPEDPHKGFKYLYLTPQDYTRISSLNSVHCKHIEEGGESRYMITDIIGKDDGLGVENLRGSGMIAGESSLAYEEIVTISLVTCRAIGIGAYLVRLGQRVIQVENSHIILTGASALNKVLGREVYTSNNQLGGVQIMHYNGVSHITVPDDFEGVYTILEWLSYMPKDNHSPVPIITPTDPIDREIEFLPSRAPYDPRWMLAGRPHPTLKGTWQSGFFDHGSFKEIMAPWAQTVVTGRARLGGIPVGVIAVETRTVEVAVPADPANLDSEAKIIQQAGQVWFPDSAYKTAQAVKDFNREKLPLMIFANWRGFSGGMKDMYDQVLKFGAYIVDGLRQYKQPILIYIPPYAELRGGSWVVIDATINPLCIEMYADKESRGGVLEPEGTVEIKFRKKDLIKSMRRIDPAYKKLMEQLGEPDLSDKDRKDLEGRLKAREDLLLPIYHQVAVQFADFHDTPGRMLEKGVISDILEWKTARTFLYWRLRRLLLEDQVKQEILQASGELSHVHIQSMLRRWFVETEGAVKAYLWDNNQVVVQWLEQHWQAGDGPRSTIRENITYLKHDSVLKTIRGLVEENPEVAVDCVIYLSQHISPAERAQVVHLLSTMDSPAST
# From the text: A cDNA encoding human ACC2 protein (27 amino acid residues to 2458 amino acid residues from the N-terminus) was cloned from a human kidney cDNA library (Clontech Laboratories, Inc.), a His-tag sequence was introduced at the 5′ end, and then inserted into pFastBac1 (Invitrogen). A recombinant baculovirus was produced in accordance with the protocol for a Bac-to-Bac baculovirus expression system (Invitrogen), and Sf-9 cells were infected therewith to express human ACC2 protein. The recovered cells were crushed, filtered through a filter, and then subjected to Ni affinity chromatography and anion exchange chromatography. Fractions containing human ACC2 protein were collected to obtain recombinant human ACC2.
# The recombinant human ACC1 and the recombinant human ACC2 obtained from the above Preparation Examples were preincubated in an assay buffer (50 mM HEPES-KOH (pH 7.4), 10 mM magnesium chloride, 6 to 10 mM potassium citrate, 4 mM glutathione reduced form, and 1.5 mg/ml bovine serum albumin) for 1 hour. […] Deprotonated ions of the substrate acetyl-CoA (AcCoA) and the reaction product malonyl-CoA (MalCoA) were detected, and the intensity of each signal was used to calculate a conversion rate to malonyl-CoA or succinyl-CoA, i.e., intensity of [MalCoA-H]—/(intensity of [MalCoA-H]-+intensity of [AcCoA.H].). […] The potassium citrate concentration in the assay buffer, the potassium bicarbonate concentration in the substrate solution, and the incubation time were adjusted within the above concentrations or reaction times for each lot of the enzyme to be used.
# [5] = system: NAFLD patients; conditions: cited from earlier work
# [6] = system: healthy subjects; conditions: repeated administration to healthy subjects; cited from earlier work
Compound,pIC50 [1],"Remaining amount of compound, Human [2] [%]","Remaining amount of compound, Rat [3] [%]",pIC50 [4],Plasma triglyceride concentration [5],platelet concentration [6],Plasma triglyceride concentration ([5]; phase II study over 12 weeks)
CC(=O)N[C@@H](C)COC1CCC(Oc2nc3c(F)cc(OC4CCC4)cc3n2C)CC1 (stereo partly drawn) [Compound I-1],6.49,,,,,,
CC(=O)N[C@@H](C)COC1CCC(Oc2nc3c(Cl)cc(OC4CC4)cc3n2C)CC1 (stereo partly drawn) [Compound I-3],5.55,80.3,82.6,,,,
CC(=O)N[C@@H](CF)COC1CCC(Oc2nc3c(F)cc(OC4CC4)cc3n2C)CC1 (stereo partly drawn) [Compound I-4],5.57,93.4,87.3,8.33,,,
Cn1c(OC2CCC(OC[C@H](CF)NC(N)=O)CC2)nc2c(F)cc(OC3CC3)cc21 (stereo partly drawn) [Compound I-5],5.16,98.9,83.4,8.05,,,
CC(=O)N[C@@H](C)C(F)(F)C[C@H]1CCC(Oc2nc3c(F)cc(OCC(F)F)c(F)c3n2C)CO1 (stereo partly drawn) [Compound I-7],4.60,89.1,74.7,6.74,,,
C[C@@H](COC1CCC(Oc2nc3c(Cl)cc(OC4CC4)cc3n2C)CC1)NC(N)=O (stereo partly drawn) [Compound I-8],5.21,83.6,85.4,7.77,,,
CC(=O)N[C@@H](C)CC(F)(F)[C@@H]1CCC(Oc2nc3c(F)cc(OCC(F)F)c(F)c3n2C)CO1 (stereo partly drawn) [Compound I-10],< 4.00,,,7.05,,,
C[C@@H](CCC1OCC(Oc2nc3c(F)cc(OCC(F)F)c(F)c3n2C)CO1)NC(N)=O (stereo partly drawn) [Compound I-11],5.15,95.8,94.5,8.02,,,
CC(=O)N[C@@H](C)CCC1CCC(Oc2nc3c(F)cc(OC4CC4)cc3n2C)CC1 (stereo partly drawn) [Compound I-15],5.77,80.2,76.2,8.42,,,
COc1cc(C(=O)N2CCC3(CC2)CC(=O)c2cc(-c4cncc(C(=O)O)c4)ccc2O3)cc2c1c(C)cn2C1CC1 [MK-4074],,,,,elevated,,
Cc1nc2ccc(C(=O)N3CCC4(CC3)CC(=O)c3c(cnn3C(C)C)C4)cc2[nH]1 [PF-05175157],,,,,,reduced,
COc1ccccc1[C@H](Cn1c(=O)n(C(C)(C)C(=O)O)c(=O)c2c(C)c(-c3ncco3)sc21)OC1CCOCC1 [firsocostat],,,,,,,elevated
